Consider ten compounds from US6156700A, “3-(1,2-Benzisothiazol- and isoxazol-5-yl)-2,4(1H,3H)-pyrimidinedione or thione and 3-(1,2-benzisothiazol- and isoxazol-5-yl)-4(3H)-pyrimidinone or thione herbicidal agents” (American Cyanmid Company, priority 1998, dated 2000).

Holding throughout (details): 0.0630 kg/ha
Assay [1] has as its system Lambsquarters, Common, Chenopodium album. Description: Postemergence herbicidal evaluation, CHEAL. Type of assay: in vivo, L. The procedure: (§1) In the tests, seedling plants are grown in jiffy flats for about two weeks. The test compounds are dispersed in 50/50 acetone/water mixtures containing 0.5% TWEEN®20, a polyoxyethylene sorbitan monolaurate surfactant of Atlas Chemical Industries, in sufficient quantities to provide the equivalent of about 0.0157 kg to 0.500 kg per hectare of active compound when applied to the plants through a spray nozzle operating at 40 psi for a predetermined time. After spraying, the plants are placed on greenhouse benches and are cared for in accordance with conventional greenhouse procedures. From four to five weeks after treatment, the seedling plants are examined and rated according to the rating system set forth below. Where more than one test is involved for a given compound, the data are averaged.
(§2) Results of herbicide evaluation are expressed on a rating scale (0-9). The scale is based upon a visual observation of plant stand, vigor, malformation, size, chlorosis and overall plant appearance as compared with a control.

Assay [2] concerns Ragweed, Common, Ambrosia artemisifolia. Description: Postemergence herbicidal evaluation, AMBEL. Type of assay: in vivo, L. The procedure:
as §1, §2

Assay [3] concerns Barnyardgrass, Echinochloa crus-galli. Description: Postemergence herbicidal evaluation, ECHCG. In kind it is in vivo, (L.) Beau. The procedure:
as §1, §2

In assay [4] the test system is Foxtail, Green, Setaria viridis. Description: Postemergence herbicidal evaluation, SETVI. In kind it is in vivo, (L.) Beau. The procedure:
as §1, §2

In assay [5] the test system is Corn, Field, Zea mays. Description: Postemergence herbicidal evaluation, ZEAMX. Type of assay: in vivo, L. The procedure:
as §1, §2

Assay [6] relates to Galium, Galium aparine. Description: Postemergence herbicidal evaluation, GALAP. Type of assay: in vivo. The procedure: as §1, §2
The test system of assay [7] is Sicklepod, Cassia obtusifolia. Description: Postemergence herbicidal evaluation, CASOB. Type of assay: in vivo, L. The procedure:
as §1, §2

The test system of assay [8] is Wheat, Winter, cv Riband, Triticum aestivum. Description: Postemergence herbicidal evaluation, TRZAWR. Type of assay: in vivo. The procedure:
as §1, §2

Assay [9] relates to Soybean, Williams, Glycine max. Description: Postemergence herbicidal evaluation, GLXMAW. Type of assay: in vivo, (L.) Merr. cv Williams. The procedure:
as §1, §2

Assay [10] relates to Morningglory, Ivyleaf, Ipomoea hederacea. Description: Postemergence herbicidal evaluation, IPOHE. In kind it is in vivo, (L.) Jacq. The procedure:
as §1, §2

Assay [11] concerns Velvetleaf, Abutilon theophrasti. Description: Postemergence herbicidal evaluation, ABUTH. In kind it is in vivo, Medic. The procedure:
as §1, §2

Assay [12] relates to Rice, Tebonnet, Oryza sativa. Description: Postemergence herbicidal evaluation, ORYSAT. In kind it is in vivo, (L.) Tebonnet. The procedure:
as §1, §2

The structures appear in SMILES notation.

For `Cc1ccc(OCC(=O)OCCN(C)C)c(-c2nsc3ccc(-n4c(=O)cc(C(F)(F)F)n(C)c4=O)cc23)c1` [Compound 70, 2-(Dimethylamino)ethyl {{2-[5-[3,6-dihydro-3-methyl-2,6-dioxo-4-(trifluoromethyl)-1(2H)-pyrimidinyl]-1,2-benzisothiazol-3-yl}-p-tolyl}oxy}acetate], the “herbicide rating (0-9)” value in assay [1] stood at 9.0; in [2] it was 9.0; in [3], 9.0; in assay [4], 9.0; in assay [5], 6.0; in assay [6], 5.0. For the same compound, the “herbicide rating (0-9)” value in [7] is given as 9.0; in [8], 5.0; in [9], 8.0; in assay [10], 9.0; in assay [11] it was 9.0; in assay [12], 3.0.

For the compound `Cc1ccc(OCC(=O)OCCCl)c(-c2nsc3ccc(-n4c(=O)cc(C(F)(F)F)n(C)c4=O)cc23)c1` [Compound 71, 2-Chloroethyl {{2-{5-[3,6-dihydro-3-methyl-2,6-dioxo-4-(trifluoromethyl)-1(2H)-pyrimidinyl]-1,2-benzisothiazol-3-yl}-p-tolyl}oxy}acetate], the “herbicide rating (0-9)” value is 9.0 in [1]; 9.0 in assay [2]; 9.0 in assay [3]; 9.0 in assay [4]; 8.5 in assay [5]; 9.0 in assay [6]. In addition, the “herbicide rating (0-9)” value in assay [7] worked out at 9.0; in assay [8] it was 9.0; in [9], 9.0; in [10], 9.0; in assay [11], 9.0; in assay [12], 8.0.

Take `Cc1ccc(OCC(=O)OCc2ccccn2)c(-c2nsc3ccc(-n4c(=O)cc(C(F)(F)F)n(C)c4=O)cc23)c1` [Compound 72, 2-Pyridylmethyl {{2-{5-[3,6-dihydro-3-methyl-2,6-dioxo-4-(trifluoromethyl)-1(2H)-pyrimidinyl]-1,2-benzisothiazol-3-yl}-p-tolyl}oxy}acetate]: the “herbicide rating (0-9)” value amounted to 9.0 in assay [1]; 9.0 in assay [2]; 9.0 in assay [3]; 9.0 in [4]; 8.0 in assay [5]; 9.0 in assay [6]. In addition, the “herbicide rating (0-9)” value is on record as 7.0 in assay [7]; 7.5 in assay [8]; 9.0 in [9]; 9.0 in [10]; 9.0 in assay [11]; 7.5 in assay [12].

Take `Cc1ccc(OCC(=O)OCC#Cc2ccccc2)c(-c2nsc3ccc(-n4c(=O)cc(C(F)(F)F)n(C)c4=O)cc23)c1` [Compound 73]: the “herbicide rating (0-9)” value in assay [1] is listed as 9.0; in assay [2], 9.0; in assay [3] it was 9.0; in assay [4], 9.0; in [5] it was 6.0; in assay [6] it was 9.0. Besides, the “herbicide rating (0-9)” value in assay [7] was found to be 9.0; in assay [8], 4.5; in assay [9], 9.0; in assay [10] it was 9.0; in [11], 9.0; in assay [12], 5.5.

Consider `C#CC(C)OC(=O)COc1ccc(C)cc1-c1nsc2ccc(-n3c(=O)cc(C(F)(F)F)n(C)c3=O)cc12` (stereo not drawn) [Compound 74, 1-Methyl-2-propynyl {{2-{5-[3,6-dihydro-3-methyl-2,6-dioxo-4-(trifluoromethyl)-1(2H)-pyrimidinyl]-1,2-benzisothiazol-3-yl}-p-tolyl}oxy}acetate], for which the “herbicide rating (0-9)” value in assay [1] worked out at 9.0; in [2], 9.0; in assay [3], 9.0; in [4], 9.0; in [5], 8.5; in assay [6], 9.0. In addition, the “herbicide rating (0-9)” value in [7] was 9.0; in assay [8] it was 7.5; in assay [9], 9.0; in assay [10], 9.0; in assay [11] it was 9.0; in assay [12], 7.0.

On to `CC#CCOC(=O)COc1ccc(C)cc1-c1nsc2ccc(-n3c(=O)cc(C(F)(F)F)n(C)c3=O)cc12` [Compound 75], for which the “herbicide rating (0-9)” value in assay [1] is recorded as 9.0; in [2], 9.0; in assay [3] it was 9.0; in assay [4], 9.0; in assay [5], 7.5; in assay [6] it was 7.0. The “herbicide rating (0-9)” value is recorded as 7.0 in assay [7]; 9.0 in [8]; 9.0 in assay [9]; 9.0 in assay [10]; 9.0 in [11]; 6.5 in assay [12].

As for `CC#CC(C)OC(=O)COc1ccc(C)cc1-c1nsc2ccc(-n3c(=O)cc(C(F)(F)F)n(C)c3=O)cc12` (stereo not drawn) [Compound 76, 1-Methyl-2-butynyl {{2-{5-[3,6-dihydro-3-methyl-2,6-dioxo-4-(trifluoromethyl)-1(2H)-pyrimidinyl]-1,2-benzisothiazol-3-yl}-p-tolyl}oxy}acetate], the “herbicide rating (0-9)” value in [1] is listed as 9.0; in [2] it was 9.0; in assay [3], 9.0; in assay [4], 9.0; in assay [5] it was 8.0; in assay [6] it was 9.0. The “herbicide rating (0-9)” value in assay [7] amounted to 9.0; in assay [8], 9.0; in [9], 9.0; in [10], 9.0; in [11] it was 9.0; in [12] it was 6.0.

`C#CCOC(=O)C(C)Oc1ccc(C)cc1-c1nsc2ccc(-n3c(=O)cc(C(F)(F)F)n(C)c3=O)cc12` (stereo not drawn) [Compound 77, 2-Propynyl 2-{{2-{5-[3,6-dihydro-3-methyl-2,6-dioxo-4-(trifluoromethyl)-1(2H)-pyrimidinyl]-1,2-benzisothiazol-3-yl}-p-tolyl}oxy}propionate]: the “herbicide rating (0-9)” value turned out to be 9.0 in assay [1]; 9.0 in assay [2]; 9.0 in [3]; 9.0 in [4]; 8.0 in assay [5]; 9.0 in assay [6]. In addition, the “herbicide rating (0-9)” value worked out at 4.0 in assay [7]; 9.0 in assay [8]; 7.0 in assay [9]; 9.0 in [10]; 9.0 in assay [11]; 9.0 in [12].

As for `C=CCOC(=O)C(C)Oc1ccc(C)cc1-c1nsc2ccc(-n3c(=O)cc(C(F)(F)F)n(C)c3=O)cc12` (stereo not drawn) [Compound 78, Allyl 2-{{2-{5-[3,6-dihydro-3-methyl-2,6-dioxo-4-(trifluoromethyl)-1(2H)-pyrimidinyl]-1,2-benzisothiazol-3-yl}-p-tolyl}oxy}propionate], the “herbicide rating (0-9)” value was 9.0 in assay [1]; 9.0 in assay [2]; 9.0 in [3]; 9.0 in [4]; 7.5 in assay [5]; 7.0 in assay [6]. The “herbicide rating (0-9)” value in assay [7] was determined as 3.0; in [8], 9.0; in [9], 6.5; in assay [10], 9.0; in [11] it was 9.0; in assay [12], 7.0.

On to `Cc1ccc(OC(C)C(=O)OCc2ccco2)c(-c2nsc3ccc(-n4c(=O)cc(C(F)(F)F)n(C)c4=O)cc23)c1` (stereo not drawn) [Compound 79, Furfuryl 2-{{2-{5-[3,6-dihydro-3-methyl-2,6-dioxo-4-(trifluoromethyl)-1(2H)-pyrimidinyl]-1,2-benzisothiazol-3-yl}-p-tolyl}oxy}propionate], for which the “herbicide rating (0-9)” value was determined as 9.0 in [1]; 9.0 in [2]; 9.0 in assay [3]; 9.0 in assay [4]; 7.5 in assay [5]; 9.0 in assay [6]. The “herbicide rating (0-9)” value in assay [7] is reported as 7.0; in assay [8], 8.5; in assay [9] it was 7.5; in assay [10], 9.0; in assay [11], 9.0; in assay [12], 7.5.
